Marks after values point to notes of the source that are not given here.
How the values were obtained:
Male Sprague-Dawley Rats = test: In vivo Complete Freund's Adjuvant (CFA) efficacy assay, inhibition of allodynia; parameters: species or system rat; key: (+) indicates the test compound was determined to be efficacious at 3 mpk, oral dosing; (−) indicates the test compound was determined to not be efficacious at 3 mpk, oral dosing; details: p < 0.05 vs vehicle group
Description: For additional information on the CFA efficacy assay, see Jayamanne et al., Brit. J. Pharmacol. 2006, 147, 281-288. Experiments were performed on adult Male Sprague-Dawley Rats (200 g-250 g). Inflammation was induced in the left hindpaw of the rat by an intra-plantar injection of 150 uL Complete Freund's Adjuvant (CFA) (SIGMA F5881). The CFA injection immediately induces local inflammation, paw swelling, and pain that persists for at least two weeks post-injection. Baseline paw withdrawal threshold (PWT) was measured to determine the percent inhibition of allodynia using a set of Von Frey Hairs on day 4 post injection as illustrated by the Dixon Up and Down Method (W. J. Dixon, Ann. Rev. Pharmacol. Toxicol. 1980, 20:441-462). […] Following Dose administration PWT threshold was evaluated again at four hours postdose. The Sprague-Dawley rats used in this assay were purchased from Harlan, 8520 Allison Pointe Blvd., Indianapolis, Ind., 46250, U.S.A. Sprague-Dawley rats are an outbred breed of albino rats first produced by the Sprague Dawley farms in Madison, Wis., U.S.A.
Percent Inhibition of Allodynia was determined by the formula: […]
ΔPWT measurements were averaged for each treatment group and statistical comparisons between groups were made using ANOVA and Dunnett's two-tailed test. […]

human FAAH = target: T1, human FAAH (Homo sapiens, UniProt O00519); test: FAAH assay, human FAAH enzyme inactivation (kinact/Ki); assay type: biochemical; details: oleamide 50 μM, 30° C.; for kinact/KI: pH 7.4, in vitro, read-out: hFAAH kinact/Ki; for hFAAH kinact/Ki: in vitro, pH 7.4
T1 construct: made in house; host or cells: E. coli
T1 sequence (O00519 1-579): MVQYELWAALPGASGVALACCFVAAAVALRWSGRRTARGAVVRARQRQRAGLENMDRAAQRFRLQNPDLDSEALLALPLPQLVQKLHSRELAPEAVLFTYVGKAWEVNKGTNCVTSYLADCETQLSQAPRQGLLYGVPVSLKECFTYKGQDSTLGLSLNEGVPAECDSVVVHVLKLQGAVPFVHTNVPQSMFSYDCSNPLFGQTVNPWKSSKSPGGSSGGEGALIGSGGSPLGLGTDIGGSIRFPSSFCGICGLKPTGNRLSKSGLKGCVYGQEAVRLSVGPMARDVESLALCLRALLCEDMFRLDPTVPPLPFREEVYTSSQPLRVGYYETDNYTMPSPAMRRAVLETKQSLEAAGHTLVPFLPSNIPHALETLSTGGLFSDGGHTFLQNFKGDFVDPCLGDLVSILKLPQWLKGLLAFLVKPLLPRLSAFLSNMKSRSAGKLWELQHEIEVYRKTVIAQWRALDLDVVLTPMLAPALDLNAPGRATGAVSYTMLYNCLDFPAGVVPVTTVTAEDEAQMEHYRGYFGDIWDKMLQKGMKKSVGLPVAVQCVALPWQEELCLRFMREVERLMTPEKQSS
Description: (§1) The FAAH assay was carried out in 384-well clear polystyrene plates (Evergreen Scientific) in a total volume of 50 μl per well in a manner similar to that described by Mileni et al., Proc. Nat. Acad. Sci. 2008, 105, 12820-12824. All percents are by volume. Serial dilutions of compound were initially prepared in 100% DMSO, and then diluted two-fold into HPLC-grade H2O to give 50% DMSO. To each well, was placed the reaction mixture (40 μl) containing 1-4 nM FAAH, 50 mM NaPi, pH 7.4, 3 mM α-ketoglutarate, 0.15 mM NADH, 7.5 U/ml glutamate dehydrogenase, 2 mM ADP, 1 mM EDTA, and 0.1% Triton X-100 (The concentration shown for each component is the final concentration in the assay). To this mixture, was added 5 μl of a compound of Examples 1 to 101 at various concentrations in 50% DMSO (or 5 μl 50% DMSO for controls). This was immediately followed by the addition of 5 μl oleamide (500 μM) dissolved in 75% EtOH/25% DMSO and the reaction mixture was mixed for 1.5 min. The final concentrations of DMSO and EtOH in the assay were each 7.5%. The reactions were incubated at 30° C. and the absorbance at 340 nm was collected over a period of 90 min with readings taken in 30-second intervals using SpectraMax Plus^384 Microplate Spectrophotometer (Molecular Devices, Sunnyvale, Calif.). The human FAAH and rat FAAH used in the assay was prepared as described in the patent application WO 2006/067613 using wild-type E. coli cells transformed in St. Louis, Mo., U.S.A. The purity of the enzyme was greater than 98% based on an analysis by SDS-polyacrylamide gel electrophoresis followed by Coomassie Blue staining.
(§2) Reaction progress curves were corrected for the non-enzymatic oxidation of NADH by subtraction of absorbancies at each time point obtained from control reactions containing no FAAH enzyme. The loss of enzyme activity as a function of time is well-described by the following mathematical equation (1) for a mono-exponential decay: […]
(§3) where At represents the absorbance at time t, A0 represents the absorbance at time zero, and C represents a constant. Observed rates of enzyme inactivation (kobs) were determined from the non-linear reaction progress curves by fitting the corrected absorbancies to an equation for a mono-exponential decay using the third-party Microsoft Excel plug-in, XLfit (IDBS Limited). Secondary plots of kobs vs. inhibitor concentration were prepared from kobs values obtained from progress curves. Second-order rates for enzyme inactivation, expressed as kinact/Ki (M^−1 s^−1), were calculated from the slopes from linear regression analysis of the secondary plot of kobs vs. inhibitor concentration as defined in following equation (2), where [I]<<Ki:
(§4) The concentration of substrate in the assay was equal to the Km for oleamide of 50 μM. Therefore, reported kinact/Ki values are obtained by multiplying resulting slopes by a factor of two (i.e. slope=kinact/(Ki*2)).
(§5) Table 1, below, lists human FAAH (hFAAH) and rat FAAH (rFAAH) enzyme inhibition values for Examples 1-101 as a ratio of kinact/Ki (M^−1 s^−1).

rat FAAH = target: T2, rat FAAH (Rattus norvegicus, UniProt P97612); test: FAAH assay, rat FAAH enzyme inactivation (kinact/Ki); assay type: biochemical; details: oleamide 50 μM, 30° C.; for kinact/KI: pH 7.4, in vitro, read-out: rFAAH kinact/Ki; for rFAAH kinact/Ki: in vitro, pH 7.4
T2 construct: made in house; host or cells: E. coli
T2 sequence (P97612 1-579): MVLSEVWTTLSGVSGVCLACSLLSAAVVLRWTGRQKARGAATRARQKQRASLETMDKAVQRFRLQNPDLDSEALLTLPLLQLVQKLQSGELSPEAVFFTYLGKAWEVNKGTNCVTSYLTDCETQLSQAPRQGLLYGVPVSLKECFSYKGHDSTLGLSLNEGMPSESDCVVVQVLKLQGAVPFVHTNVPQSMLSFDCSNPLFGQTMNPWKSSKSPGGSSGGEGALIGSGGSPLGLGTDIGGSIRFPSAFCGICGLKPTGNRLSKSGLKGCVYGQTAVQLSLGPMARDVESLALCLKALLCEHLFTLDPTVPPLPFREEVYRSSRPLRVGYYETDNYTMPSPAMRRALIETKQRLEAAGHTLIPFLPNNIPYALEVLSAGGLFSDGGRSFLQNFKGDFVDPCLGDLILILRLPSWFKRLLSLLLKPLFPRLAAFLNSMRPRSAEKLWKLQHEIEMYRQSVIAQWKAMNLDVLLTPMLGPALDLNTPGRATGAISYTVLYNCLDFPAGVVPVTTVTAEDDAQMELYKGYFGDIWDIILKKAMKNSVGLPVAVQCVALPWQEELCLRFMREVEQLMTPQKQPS
Description: as §1, §2, §3, §4, §5

[1] = 3 mpk, oral dosing, PWT four hours postdose

| SMILES | kinact/KI (human FAAH) [M⁻¹ s⁻¹] | kinact/KI (rat FAAH) [M⁻¹ s⁻¹] | hFAAH kinact/Ki (human FAAH) [M⁻¹ s⁻¹] | rFAAH kinact/Ki (rat FAAH) [M⁻¹ s⁻¹] | CFA Efficacy (Male Sprague-Dawley Rats; 25 mpk, intraperitoneal dosing) | CFA Efficacy (Male Sprague-Dawley Rats; [1]) |
| --- | --- | --- | --- | --- | --- | --- |
| O=C(Nc1cccnn1)N1CCC2(CC1)CC(c1cccc(Oc3ccc(C(F)(F)F)cn3)c1)CO2 (racemic) [Example 1, (3RS)—N-pyridazin-3-yl-3-(3-{[5-(trifluoromethyl)pyridin-2-yl]oxy}phenyl)-1-oxa-8-azaspiro[4.5]decane-8-carboxamide] | 3130 | 1880 |  |  | (+)^d |  |
| Cc1noc(NC(=O)N2CCC3(CC2)CC(c2cccc(OC(F)(F)F)c2)CO3)c1C (single isomer, unassigned) [Example 33, N-(3,4-dimethylisoxazol-5-yl)-3-[3-(trifluoromethoxy)phenyl]-1-oxa-8-azaspiro[4.5]decane-8-carboxamide] | 3420 | 4070 |  |  |  | (+) |
| Cc1noc(NC(=O)N2CCC3(CC2)CC(c2cccc(OC(F)(F)F)c2)CO3)c1C (single isomer, unassigned) [Example 34, N-(3,4-dimethylisoxazol-5-yl)-3-[3-(trifluoromethoxy)phenyl]-1-oxa-8-azaspiro[4.5]decane-8-carboxamide] |  |  | 1840 | 2610 |  | (+) |
| Cc1noc(NC(=O)N2CCC3(CC2)CC(c2cccc(C(F)(F)F)c2)CO3)c1C (single isomer, unassigned) [Example 66, N-(3,4-dimethylisoxazol-5-yl)-3-[3-(trifluoromethyl)phenyl]-1-oxa-8-azaspiro[4.5]decane-8-carboxamide] | 2140 | 2920 |  |  |  |  |
| Cc1nnc(NC(=O)N2CCC3(CC2)CC(c2cccc(OC(F)(F)F)c2)CO3)o1 (single isomer, unassigned) [Example 70, N-(5-methyl-1,3,4-oxadiazol-2-yl)-3-[3-(trifluoromethoxy)phenyl]-1-oxa-8-azaspiro[4.5]decane-8-carboxamide] | 2110 | 2390 |  |  |  |  |
| Cc1noc(NC(=O)N2CCC3(CC2)C[C@H](c2cccc(-c4ccc(F)c(F)c4)c2)CO3)c1C [Example 58, (3R)-3-(3′,4′-difluorobiphenyl-3-yl)-N-(3,4-dimethylisoxazol-5-yl)-1-oxa-8-azaspiro[4.5]decane-8-carboxamide] | 2780 | 707 |  |  |  |  |
| Cc1noc(NC(=O)N2CCC3(CC2)C[C@H](c2cccc(-c4ccc(OC(F)(F)F)cc4)c2)CO3)c1C [Example 64, (3R)—N-(3,4-dimethylisoxazol-5-yl)-3-[4′-(trifluoromethoxy)biphenyl-3-yl]-1-oxa-8-azaspiro[4.5]decane-8-carboxamide] | 1490 | 588 |  |  |  |  |
| Cn1nnnc1NC(=O)N1CCC2(CC1)C[C@H](c1ccc(OCc3cccc(F)c3)cc1)CO2 [Example 86, (3R)-3-{4-[(3-fluorobenzyl)oxy]phenyl}-N-(1-methyl-1H-tetrazol-5-yl)-1-oxa-8-azaspiro[4.5]decane-8-carboxamide] | 28400 | 11200 |  |  |  |  |
| Cc1noc(NC(=O)N2CCC3(CC2)C[C@H](c2cccc(-c4ccc(C(F)(F)F)cn4)c2)CO3)c1C [Example 98, (3R)—N-(3,4-dimethylisoxazol-5-yl)-3-{3-[5-(trifluoromethyl)pyridin-2-yl]phenyl}-1-oxa-8-azaspiro[4.5]decane-8-carboxamide] | 2820 | 1630 |  |  |  |  |

Further lines, with some results ahead:

| kinact/KI (human FAAH) [M⁻¹ s⁻¹] | kinact/KI (rat FAAH) [M⁻¹ s⁻¹] | hFAAH kinact/Ki (human FAAH) [M⁻¹ s⁻¹] | rFAAH kinact/Ki (rat FAAH) [M⁻¹ s⁻¹] | SMILES | CFA Efficacy (Male Sprague-Dawley Rats; 25 mpk, intraperitoneal dosing) | CFA Efficacy (Male Sprague-Dawley Rats; [1]) |
| --- | --- | --- | --- | --- | --- | --- |
| 2390 |  |  | 1560 | Cc1noc(NC(=O)N2CCC3(CC2)CC(c2cccc(Cl)c2)CO3)c1C (single isomer, unassigned) [Example 35, 3-(3-chlorophenol)-N-(3,4-dimethylisoxazol-5-yl)-1-oxa-8-azaspiro[4.5]decane-8-carboxamide] |  | (+) |
|  |  | 2590 | 3830 | Cc1noc(NC(=O)N2CCC3(CC2)CC(c2cccc(Cl)c2)CO3)c1C (single isomer, unassigned) [Example 36, 3-(3-chlorophenyl)-N-(3,4-dimethylisoxazol-5-yl)-1-oxa-8-azaspiro[4.5]decane-8-carboxamide] |  | (+) |
|  |  | 1330 | 2680 | Cc1noc(NC(=O)N2CCC3(CC2)CC(c2cccc(C(F)(F)F)c2)CO3)c1C (single isomer, unassigned) [Example 67, N-(3,4-dimethylisoxazol-5-yl)-3-[3-(trifluoromethyl)phenyl]-1-oxa-8-azaspiro[4.5]decane-8-carboxamide] |  |  |
| 960 | 4880 |  |  | CCCc1noc(NC(=O)N2CCC3(CC2)CC(c2ccc(Cl)c(Cl)c2)CO3)c1C (single isomer, unassigned) [Example 69, 3-(3,4-dichlorophenyl)-N-(3-n-propyl-4-methylisoxazol-5-yl)-1-oxa-8-azaspiro[4.5]decane-8-carboxamide] |  |  |

Reference: patent US20110230493A1, “1-OXA-8-Azaspiro [4,5] Decabe-8-Carboxamide Compounds as FAAH Inhibitors” (Pfizer Inc., priority 2008, published 2011)
